Source: PubChem BioAssay AID652266 (Broad Institute, 2013)
The source made the active and inactive calls. No rule for the calls is given here.

biological target: Protein disulfide-isomerase A3 (Homo sapiens) (UniProt P30101); test: inhibitors of thiol isomerase ERp57, dose response, selectivity assay, biochemical, dry powder samples, plate reader (AID 652266); conditions: purified ERp57 enzyme
Sequence (P30101 whole entry, looked up): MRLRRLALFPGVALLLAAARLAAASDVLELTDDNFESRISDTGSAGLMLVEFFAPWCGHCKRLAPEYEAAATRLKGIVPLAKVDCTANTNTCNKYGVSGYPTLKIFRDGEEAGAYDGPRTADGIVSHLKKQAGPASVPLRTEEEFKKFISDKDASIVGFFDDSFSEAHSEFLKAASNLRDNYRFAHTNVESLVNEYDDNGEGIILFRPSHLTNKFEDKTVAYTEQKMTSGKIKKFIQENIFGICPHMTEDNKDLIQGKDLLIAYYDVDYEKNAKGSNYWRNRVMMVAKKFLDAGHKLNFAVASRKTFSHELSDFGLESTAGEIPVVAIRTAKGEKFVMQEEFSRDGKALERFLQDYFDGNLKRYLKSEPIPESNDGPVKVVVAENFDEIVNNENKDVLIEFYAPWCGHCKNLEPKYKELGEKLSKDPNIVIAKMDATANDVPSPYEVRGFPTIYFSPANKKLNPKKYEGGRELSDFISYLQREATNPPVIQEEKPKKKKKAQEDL

AC50, inactive:
CC(C)(C)OC(=O)C1(CCOc2ccccc2)CCN(Cc2ccc(O)c(Cl)c2)CC1 > 30 µM, C/C1=C\[C@@H](O)C(C)(C)CCCC2(C)OC2C[C@@H]1OC(=O)c1ccc(O)cc1 (some centres not stated) > 30 µM, C/C1=C\C[C@H](OC(=O)c2ccc(O)cc2)/C(C)=C/[C@@H](O)C(C)(C)CCC1 > 30 µM, CCOC(=O)c1c(CN2CCN(CCO)CC2)n(-c2ccccc2)c2cc(Br)c(O)cc12 > 30 µM, CCN(C)C(=O)C1(CCOc2ccccc2)CCN(Cc2ccc(O)c(Cl)c2)CC1 > 30 µM, O=C(Nc1ccccc1)C1(CCOc2ccccc2)CCN(Cc2ccc(O)c(Cl)c2)CC1 > 30 µM, O=C(NC1CCCC1)C1(CCOc2ccccc2)CCN(Cc2ccc(O)c(Cl)c2)CC1 > 30 µM, CCOC(=O)C1(CCOc2ccccc2)CCN(Cc2ccc(O)c(Cl)c2)CC1 > 30 µM, CCOC(=O)C1(CCOc2ccccc2)CCN(Cc2ccc(O)cc2)CC1 > 30 µM, CCOC(=O)C1(CCOc2ccccc2)CCN(C(=O)c2ccc(O)c(Cl)c2)CC1 > 30 µM, CCOC(=O)C1(CCOc2ccccc2)CCN(Cc2ccc(OC)c(Cl)c2)CC1 > 30 µM, CC(C)OC(=O)C1(CCOc2ccccc2)CCN(Cc2ccc(O)c(Cl)c2)CC1 > 30 µM
